Results on ten molecules are retold here after patent US5942489A, “HGH-RH(1-29)NH2 analogues having antagonistic activity” (The Administrators of the Tulane Educational Fund, priority 1996, dated 1999).

For test [1], the system named is GH releasing activity. As to conditions: cited from earlier work; for bioactivity of shorter analogues: compared with hGH-RH(1-29)NH2; for GH releasing activity relative to GH-RH: percent of that of GH-RH.
Test [2] deals with T1, rat pituitary GH-RH receptors (Rattus norvegicus, UniProt Q02644).
T1 construct: from tissue; host or cells: anterior pituitary of male Sprague-Dawley rats, crude membranes
T1 sequence (Q02644 23-464): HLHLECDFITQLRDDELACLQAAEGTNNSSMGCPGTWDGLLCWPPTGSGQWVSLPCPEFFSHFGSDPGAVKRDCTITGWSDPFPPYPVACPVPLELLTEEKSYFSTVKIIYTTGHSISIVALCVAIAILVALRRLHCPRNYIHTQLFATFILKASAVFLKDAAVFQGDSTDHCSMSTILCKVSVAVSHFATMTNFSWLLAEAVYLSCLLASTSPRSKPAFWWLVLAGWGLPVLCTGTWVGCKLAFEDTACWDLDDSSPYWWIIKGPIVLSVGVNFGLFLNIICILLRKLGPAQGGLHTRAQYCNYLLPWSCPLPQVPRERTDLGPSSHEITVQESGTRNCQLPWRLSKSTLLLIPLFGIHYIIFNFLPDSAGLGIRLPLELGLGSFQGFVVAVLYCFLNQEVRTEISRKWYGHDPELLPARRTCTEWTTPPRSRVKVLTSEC
In words: GH-RH radioreceptor binding assay, competition with labelled [His1,Nle27]hGH-RH(1-32)NH2. As to conditions: for Ki: rat anterior pituitary membrane homogenates, read-out: Ki values, K. The procedure:
GH-RH Binding Assay. A sensitive radioreceptor binding assay was developed to determine the binding characteristics of the antagonists of GH-RH (G. Halmos, A. V. Schally et al., Receptor 3, 87-97, 1993), hereby incorporated by reference. The assay is based on binding of labelled [His^1, Nle^27 ]hGH-RH(1-32)NH2 to rat anterior pituitary membrane homogenates. Iodinated derivatives of [His^1, Nle^27 ]hGH-RH(1-32)NH2 are prepared by the chloramine-T method (F. C. Greenwood et al., Biochemistry 89:114-123, 1963), hereby incorporated by reference. Pituitaries from male Sprague-Dawley rats (250-300 g) are used to prepare crude membranes. For saturation binding analyses, membrane homogenates are incubated with at least 6 concentrations of [His^1,125I-Tyr^10,Nle^27 ]hGH-RH(1-32)NH2, ranging from 0.005 to 0.35 nM in the presence or absence of excess unlabelled peptide (1 μM).
The pellet is counted for radioactivity in a γ-counter. The affinities of the antagonist peptides tested to rat pituitary GH-RH receptors are determined in competitive binding experiments. The final binding affinities are estimated by Ki (dissociation constant of the inhibitor-receptor complex) and are determined by the Ligand PC computer program of Munson and Rodbard as modified by McPherson. Relative affinities compared to [Ac-Tyr^1, D-Arg^2 ]hGH-RH(1-29)NH2, the Standard antagonist, are calculated as the ratio of Ki of the tested GH-RH antagonist to the Ki of the Standard antagonist.

The subject of test [3] is GH release induced by 1 nM hGH-RH(1-29)NH2 in superfused rat pituitary cells. In words: Inhibition of hGH-RH(1-29)NH2-induced GH release in superfused rat pituitary system. It counts as cell-based. Conditions: 100 nM peptide. The procedure:
Superfused Rat Pituitary System. The analogues were tested in vitro in a test described earlier (S. Vigh and A. V. Schally, Peptides 5:241-[…], 1984) with modification (Z. Rekasi and A. V. Schally, P. N. A. S. 90:2146-2149, 1993).
Briefly, the cells are preincubated with peptides for 9 minutes (3 mL) at various concentrations. Immediately after the incubation, 1 nM hGH-RH(1-29)NH2 is administered for 3 minutes (1 mL) [0 minute response]. To check the duration of the antagonistic effect of the analogue, 1 nM hGH-RH(1-29)NH2 is applied 30, 60, 90, and 120 minutes later for 3 minutes [30, 60, 90, 120 min responses]. Net integral values of the GH responses are evaluated. GH responses are compared to and expressed as percent of the original GH response induced by 1 nM GH-RH(1-29)NH2. The effect of the new antagonists are compared to that of [Ac-Tyr^1,D-Arg^2 ]hGH-RH(1-29)NH2, the "Standard antagonist".
Growth Hormone Radio-immunoassay. Rat GH levels in aliquots of undiluted and diluted superfusion samples were measured by double-antibody radioimmunoassay using materials supplied by the National Hormone and Pituitary Program, Baltimore, Md. The results of RIA were analyzed with a computer program developed in our institute (V. Csernus and A. V. Schally, Harwood Academic (Greenstein, B. C. ed., London, pp. 71-109, 1991), hereby incorporated by reference. Inter-assay variation was less than 15% and intra-assay variation was less than 10%.

Test [4] concerns SW-1990 human pancreatic cancers. The test is described as follows: SW 1990 human pancreatic cancers in nude mice. It is filed as in vivo. Conditions: dose 10, 44 days treatment. The procedure: Small piees of an SW-1990 rumor growing in a nude mouse were transplated s.c. into the right flanks of 60 nu/nu male nude mice. Ten days after transplantation, 40 mice with well growing tumors were groupled into 4 groups with equal average tumor volume (16 mm^3) in each group. Treatment started 13 days after transplantation and was continuted for 44 days. The tumors were measured and volume was calculated weekly. Tumor volume changes are shown in Table V. On day 45 of treatment the mice were sacraficed under Metofane anesthesia by exsanguination from abdominal aorta. Blood was collected, tumor and organ weights were determined.

Where a SMILES comes first, the peptide text is derived from it. Where no end group is shown, it is not given here. [ ]: non-standard residue; d: D form. The star is where a group is joined. Phe(4-Cl) = N[C@@H](Cc1ccc(Cl)cc1)C(=O)O; Cit = NC(=O)NCCC[C@H](N)C(=O)O; Agmatine = N=C(N)NCCCCN*; Nle = CCCC[C@H](N)C(=O)O; Abu = CC[C@H](N)C(=O)O; PhAc = O=C(Cc1ccccc1)*

In the case of “GH-RH(1-28)NH2 (YADAIFTNSYRKVLGQLSARKLLQDIMS-NH2; UniProt P01286 32-59, looked up, fragment)”, in test [1], the “bioactivity of shorter analogues” value is “substantially lower bioactivity”.

In the case of “[Ac-Tyr^1 ]GH-RH (Ac-YADAIFTNSYRKVLGQLSARKLLQDIMSRQQGESNQERGARARL; ends and bridges not checked; UniProt P01286 32-75, looked up)”, the “GH releasing activity relative to GH-RH” value in test [1] is listed as 2-3%.

The Ki is a measure of affinity in units of concentration, obtained from inhibition or displacement. Regarding `CCCC[C@H](NC(=O)[C@@H](NC(=O)[C@H](CC(=O)O)NC(=O)[C@H](CCC(N)=O)NC(=O)[C@H](CC(C)C)NC(=O)[C@H](CC(C)C)NC(=O)[C@H](CCCCN)NC(=O)[C@H](CCCNC(=N)N)NC(=O)[C@H](C)NC(=O)[C@H](CO)NC(=O)[C@H](CC(C)C)NC(=O)[C@H](CCC(N)=O)NC(=O)[C@H](CC)NC(=O)[C@H](CC(C)C)NC(=O)[C@@H](NC(=O)[C@H](CCCCN)NC(=O)[C@H](CCCNC(=N)N)NC(=O)[C@H](Cc1ccc(O)cc1)NC(=O)[C@H](CO)NC(=O)[C@H](CC)NC(=O)[C@@H](NC(=O)[C@H](Cc1ccc(Cl)cc1)NC(=O)[C@@H](NC(=O)[C@H](C)NC(=O)[C@H](CC(=O)O)NC(=O)[C@@H](CCCNC(=N)N)NC(=O)[C@H](Cc1ccc(O)cc1)NC(=O)Cc1ccccc1)[C@@H](C)CC)[C@@H](C)O)C(C)C)[C@@H](C)CC)C(=O)N[C@@H](CO)C(=O)N[C@@H](CCCNC(N)=O)C(N)=O` [Peptide 3, [PhAc^0,D-Arg^2,Phe(pCl)^6,Abu^8,15,Nle^27,Cit^29]hGH-RH(1-29)-NH2] (PhAc-Y[dR]DAI[Phe(4-Cl)]T[Abu]SYRKVL[Abu]QLSARKLLQDI[Nle]S[Cit]-NH2), the Ki in test [2] was 0.301 ± 0.14 nM.

Regarding “GH-RH(1-27)NH2 (YADAIFTNSYRKVLGQLSARKLLQDIM-NH2; UniProt P01286 32-58, looked up, fragment)”, the “bioactivity of shorter analogues” value in test [1] is given as “substantially lower bioactivity”.

With `CCCC[C@H](NC(=O)[C@@H](NC(=O)[C@H](CC(=O)O)NC(=O)[C@H](CCC(N)=O)NC(=O)[C@H](CC(C)C)NC(=O)[C@H](CC(C)C)NC(=O)[C@H](CCCCN)NC(=O)[C@H](CCCNC(=N)N)NC(=O)[C@H](C)NC(=O)[C@H](CO)NC(=O)[C@H](CC(C)C)NC(=O)[C@H](CCC(N)=O)NC(=O)[C@H](CC)NC(=O)[C@H](CC(C)C)NC(=O)[C@@H](NC(=O)[C@H](CCCCN)NC(=O)[C@H](CCCNC(=N)N)NC(=O)[C@H](Cc1ccc(O)cc1)NC(=O)[C@H](CO)NC(=O)[C@H](CC(N)=O)NC(=O)[C@@H](NC(=O)[C@H](Cc1ccc(Cl)cc1)NC(=O)[C@@H](NC(=O)[C@H](C)NC(=O)[C@H](CC(=O)O)NC(=O)[C@@H](CCCNC(=N)N)NC(=O)[C@H](Cc1ccc(O)cc1)NC(=O)Cc1ccccc1)[C@@H](C)CC)[C@@H](C)O)C(C)C)[C@@H](C)CC)C(=O)N[C@@H](CO)C(=O)NCCCCNC(=N)N` [Peptide 8, [PhAc^0,D-Arg^2,Phe(pCl)^6,Abu^15,Nle^27]hGH-RH(1-28)Agm] (PhAc-Y[dR]DAI[Phe(4-Cl)]TNSYRKVL[Abu]QLSARKLLQDI[Nle]S-Agmatine), the Ki in test [2] was 0.0159 ± 0.01 nM.

For `CC[C@H](C)[C@H](NC(=O)[C@H](C)NC(=O)[C@H](CC(=O)O)NC(=O)[C@@H](CCCNC(=N)N)NC(=O)[C@H](Cc1ccc(O)cc1)NC(C)=O)C(=O)N[C@@H](Cc1ccccc1)C(=O)N[C@H](C(=O)N[C@@H](CC(N)=O)C(=O)N[C@@H](CO)C(=O)N[C@@H](Cc1ccc(O)cc1)C(=O)N[C@@H](CCCNC(=N)N)C(=O)N[C@@H](CCCCN)C(=O)N[C@H](C(=O)N[C@@H](CC(C)C)C(=O)NCC(=O)N[C@@H](CCC(N)=O)C(=O)N[C@@H](CC(C)C)C(=O)N[C@@H](CO)C(=O)N[C@@H](C)C(=O)N[C@@H](CCCNC(=N)N)C(=O)N[C@@H](CCCCN)C(=O)N[C@@H](CC(C)C)C(=O)N[C@@H](CC(C)C)C(=O)N[C@@H](CCC(N)=O)C(=O)N[C@@H](CC(=O)O)C(=O)N[C@H](C(=O)N[C@@H](CCSC)C(=O)N[C@@H](CO)C(=O)N[C@@H](CCCNC(=N)N)C(N)=O)[C@@H](C)CC)C(C)C)[C@@H](C)O` [Standard antagonist, [Ac-Tyr^1,D-Arg^2]hGH-RH(1-29)NH2] (Ac-Y[dR]DAIFTNSYRKVLGQLSARKLLQDIMSR-NH2), in test [2], the Ki was 3.37 ± 0.14 nM. Also, the “relative affinities (R.A.)” value in test [2] (relative to Standard antagonist (=1)) worked out at 1. The “Inhibition of GH release (%) 0 min” value in test [3] (0 min response) was determined as 62.1%. The “Inhibition of GH release (%) 30 min” value in test [3] (30 min response) is recorded as 2.5%. Besides, in test [3] (60 min response), the “Inhibition of GH release (%) 60 min” value was determined as 19%.

Regarding “[PhAc^0,D-Arg^2,Phe(pCl)^6,Abu^15,Nle^27 ]hGH-RH(1-28)Agm [Peptide B]”, in test [4], the “Final Tumor Volume mm^3” value turned out to be 612 ± 220 mm^3 and the “Tumor weights” value is listed as 931 ± 330 mg.

As to [D-Tyr^1 ]GH-RH, in test [1], the “GH releasing activity relative to GH-RH” value is listed as 2-3%.

In the case of `CCCC[C@H](NC(=O)[C@@H](NC(=O)[C@H](CC(=O)O)NC(=O)[C@H](CCC(N)=O)NC(=O)[C@H](CC(C)C)NC(=O)[C@H](CC(C)C)NC(=O)[C@H](CCCCN)NC(=O)[C@H](CCCNC(=N)N)NC(=O)[C@H](C)NC(=O)[C@H](CO)NC(=O)[C@H](CC(C)C)NC(=O)[C@H](CCC(N)=O)NC(=O)[C@H](C)NC(=O)[C@H](CC(C)C)NC(=O)[C@@H](NC(=O)[C@H](CCCCN)NC(=O)[C@H](CCCNC(=N)N)NC(=O)[C@H](Cc1ccc(O)cc1)NC(=O)[C@H](CO)NC(=O)[C@H](CC)NC(=O)[C@@H](NC(=O)[C@H](Cc1ccc(Cl)cc1)NC(=O)[C@@H](NC(=O)[C@H](C)NC(=O)[C@H](CC(=O)O)NC(=O)[C@@H](CCCNC(=N)N)NC(=O)[C@H](Cc1ccc(O)cc1)NC(=O)Cc1ccccc1)[C@@H](C)CC)[C@@H](C)O)C(C)C)[C@@H](C)CC)C(=O)N[C@@H](CO)C(=O)N[C@@H](CCCNC(=N)N)C(N)=O` [Peptide 11, [PhAc^0,D-Arg^2,Phe(pCl)^6,Abu^8,Ala^15,Nle^27],hGH-RH(1-29)NH2] (PhAc-Y[dR]DAI[Phe(4-Cl)]T[Abu]SYRKVLAQLSARKLLQDI[Nle]SR-NH2), the Ki in test [2] was 0.059 ± 0.001 nM.

For “hGH-RH(2-44) (ADAIFTNSYRKVLGQLSARKLLQDIMSRQQGESNQERGARARL; ends and bridges not checked; UniProt P01286 33-75, looked up, fragment) [GH-RH without its N-terminus residue]”, the “GH releasing activity relative to GH-RH” value in test [1] was 0.1%.
